Laboratory results: patent US20250163104A1, “MACROCYCLIC IMMUNOMODULATORS” (priority 2021, published 2025)
Where a SMILES comes first, the peptide text is derived from it. Bridges are numbered along the chain shown (N, C = ends). [ ]: non-standard residue; d: D form. The star is where a group is joined. Bip = N[C@@H](Cc1ccc(-c2ccccc2)cc1)C(=O)O; Ala(cPent) = N[C@@H](CC1CCCC1)C(=O)O; Cha = N[C@@H](CC1CCCCC1)C(=O)O; Gly(cPr) = N[C@H](C(=O)O)C1CC1; Chg = N[C@H](C(=O)O)C1CCCCC1; Phg = N[C@H](C(=O)O)c1ccccc1; Carboxymethyl = O=C(O)C*; Nle = CCCC[C@H](N)C(=O)O; Orn = NCCC[C@H](N)C(=O)O; Dab = NCC[C@H](N)C(=O)O; Abu = CC[C@H](N)C(=O)O; Dap = NC[C@H](N)C(=O)O

Target: T1, human PD-1 / PD-L1-Ig binding on Jurkat cell line over-expressing human PD-1 (Jurkat-PD-1) (Homo sapiens, UniProt Q15116)
T1 construct: expressed in transfected cells; host or cells: Jurkat
Assay: Jurkat-PD-1 Cell Binding High-Content Screening Assay (CBA)
Type: cell-based
Settings: Jurkat-PD-1 cells, PE-labeled PD-L1-Ig 20 nM final; read-out: Jurkat HPD1_PDL1 IC50
How it was run: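 PE-PD-L1-Ig 20 nM final; cells in DMEM/10% FCS; cpd pre-incubation 2 h, 37° C; ligand 1 h; PFA fix + Hoechst 33342; high-content imaging read-out.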

T1 sequence (Q15116 25-288): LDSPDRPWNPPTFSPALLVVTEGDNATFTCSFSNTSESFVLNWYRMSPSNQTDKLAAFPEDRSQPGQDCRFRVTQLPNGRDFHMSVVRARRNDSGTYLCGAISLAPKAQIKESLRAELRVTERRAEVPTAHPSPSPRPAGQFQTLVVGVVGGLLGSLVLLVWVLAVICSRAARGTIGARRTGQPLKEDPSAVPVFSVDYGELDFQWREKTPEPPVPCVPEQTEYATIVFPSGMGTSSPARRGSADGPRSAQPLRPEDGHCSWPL

| SMILES | IC50 |
| --- | --- |
| CC(C)C[C@H]1NC(=O)[C@H](CCCN)NC(=O)[C@H](CCC(=O)O)NC(=O)[C@H](Cc2ccc(-c3ccccc3)cc2)NC(=O)[C@H](C2CCCCC2)NC(=O)[C@H](Cc2c[nH]c3ccccc23)NC(=O)[C@H](CC(=O)O)NC(=O)[C@H](Cc2ccc(OCC(=O)O)cc2)NC(=O)[C@H](CN)NC(=O)CSC[C@@H](C(=O)N[C@@H](C)C(N)=O)NC(=O)[C@H]([C@@H](C)O)NC(=O)[C@H](C(C)C)NC(=O)[C@H](CC2CCCCC2)NC(=O)[C@H](CCN)NC1=O [Compound 1714] ({CH2CO}-[Dap]Y(Carboxymethyl)DW[Chg][Bip]E[Orn][dL][Dab][Cha]VTCA-NH2; thioether N-14) | 0.0376 µM |
| CC(C)C[C@H]1NC(=O)[C@H](CCCN)NC(=O)[C@H](CCC(=O)O)NC(=O)[C@H](Cc2ccc(-c3ccccc3)cc2)NC(=O)[C@H](CC2CCCC2)NC(=O)[C@H](Cc2c[nH]c3ccccc23)NC(=O)[C@H](CC(=O)O)NC(=O)[C@H](Cc2ccc(OCC(=O)O)cc2)NC(=O)[C@H](CN)NC(=O)CSC[C@@H](C(=O)N[C@@H](C)C(N)=O)NC(=O)[C@H]([C@@H](C)O)NC(=O)[C@H](C(C)C)NC(=O)[C@H](CC2CCCCC2)NC(=O)[C@H](CCN)NC1=O [Compound 1715] ({CH2CO}-[Dap]Y(Carboxymethyl)DW[Ala(cPent)][Bip]E[Orn][dL][Dab][Cha]VTCA-NH2; thioether N-14) | 0.0384 µM |
| CC(C)C[C@H]1NC(=O)[C@H](CCCN)NC(=O)[C@H](CCC(=O)O)NC(=O)[C@H](Cc2ccc(-c3ccccc3)cc2)NC(=O)[C@H](C2CC2)NC(=O)[C@H](Cc2c[nH]c3ccccc23)NC(=O)[C@H](CC(=O)O)NC(=O)[C@H](Cc2ccc(OCC(=O)O)cc2)NC(=O)[C@H](CN)NC(=O)CSC[C@@H](C(=O)N[C@@H](C)C(N)=O)NC(=O)[C@H]([C@@H](C)O)NC(=O)[C@H](C(C)C)NC(=O)[C@H](CC2CCCCC2)NC(=O)[C@H](CCN)NC1=O [Compound 1716] ({CH2CO}-[Dap]Y(Carboxymethyl)DW[Gly(cPr)][Bip]E[Orn][dL][Dab][Cha]VTCA-NH2; thioether N-14) | 0.0249 µM |
| CC[C@H](C)[C@@H]1NC(=O)[C@H](Cc2c[nH]c3ccccc23)NC(=O)[C@H](CC(=O)O)NC(=O)[C@H](Cc2ccc(OCC(=O)O)cc2)NC(=O)[C@H](CN)NC(=O)CSC[C@@H](C(=O)N[C@@H](C)C(N)=O)NC(=O)[C@H]([C@@H](C)O)NC(=O)[C@H](C(C)C)NC(=O)[C@H](CC2CCCCC2)NC(=O)[C@H](CCN)NC(=O)[C@@H](CC(C)C)NC(=O)[C@H](CCCN)NC(=O)[C@H](CCC(=O)O)NC(=O)[C@H](Cc2ccc(-c3ccccc3)cc2)NC1=O [Compound 1717] ({CH2CO}-[Dap]Y(Carboxymethyl)DWI[Bip]E[Orn][dL][Dab][Cha]VTCA-NH2; thioether N-14) | 0.0277 µM |
| CCCC[C@@H]1NC(=O)[C@H](Cc2c[nH]c3ccccc23)NC(=O)[C@H](CC(=O)O)NC(=O)[C@H](Cc2ccc(OCC(=O)O)cc2)NC(=O)[C@H](CN)NC(=O)CSC[C@@H](C(=O)N[C@@H](C)C(N)=O)NC(=O)[C@H]([C@@H](C)O)NC(=O)[C@H](C(C)C)NC(=O)[C@H](CC2CCCCC2)NC(=O)[C@H](CCN)NC(=O)[C@@H](CC(C)C)NC(=O)[C@H](CCCN)NC(=O)[C@H](CCC(=O)O)NC(=O)[C@H](Cc2ccc(-c3ccccc3)cc2)NC1=O [Compound 1718] ({CH2CO}-[Dap]Y(Carboxymethyl)DW[Nle][Bip]E[Orn][dL][Dab][Cha]VTCA-NH2; thioether N-14) | 0.0242 µM |
| CCC[C@@H]1NC(=O)[C@H](Cc2c[nH]c3ccccc23)NC(=O)[C@H](CC(=O)O)NC(=O)[C@H](Cc2ccc(OCC(=O)O)cc2)NC(=O)[C@H](CN)NC(=O)CSC[C@@H](C(=O)N[C@@H](C)C(N)=O)NC(=O)[C@H]([C@@H](C)O)NC(=O)[C@H](C(C)C)NC(=O)[C@H](CC2CCCCC2)NC(=O)[C@H](CCN)NC(=O)[C@@H](CC(C)C)NC(=O)[C@H](CCCN)NC(=O)[C@H](CCC(=O)O)NC(=O)[C@H](Cc2ccc(-c3ccccc3)cc2)NC1=O [Compound 1719] | 0.021 µM |
| CC(C)C[C@H]1NC(=O)[C@H](CCCN)NC(=O)[C@H](CCC(=O)O)NC(=O)[C@H](Cc2ccc(-c3ccccc3)cc2)NC(=O)[C@H](c2ccccc2)NC(=O)[C@H](Cc2c[nH]c3ccccc23)NC(=O)[C@H](CC(=O)O)NC(=O)[C@H](Cc2ccc(OCC(=O)O)cc2)NC(=O)[C@H](CN)NC(=O)CSC[C@@H](C(=O)N[C@@H](C)C(N)=O)NC(=O)[C@H]([C@@H](C)O)NC(=O)[C@H](C(C)C)NC(=O)[C@H](CC2CCCCC2)NC(=O)[C@H](CCN)NC1=O [Compound 1720] ({CH2CO}-[Dap]Y(Carboxymethyl)DW[Phg][Bip]E[Orn][dL][Dab][Cha]VTCA-NH2; thioether N-14) | 0.024 µM |
| CC[C@@H]1NC(=O)[C@H](Cc2c[nH]c3ccccc23)NC(=O)[C@H](CC(=O)O)NC(=O)[C@H](Cc2ccc(OCC(=O)O)cc2)NC(=O)[C@H](CN)NC(=O)CSC[C@@H](C(=O)N[C@@H](C)C(N)=O)NC(=O)[C@H]([C@@H](C)O)NC(=O)[C@H](C(C)C)NC(=O)[C@H](CC2CCCCC2)NC(=O)[C@H](CCN)NC(=O)[C@@H](CC(C)C)NC(=O)[C@H](CCCN)NC(=O)[C@H]([C@@H](C)CC)NC(=O)[C@H](Cc2ccc(-c3ccccc3)cc2)NC1=O [Compound 1721] ({CH2CO}-[Dap]Y(Carboxymethyl)DW[Abu][Bip]I[Orn][dL][Dab][Cha]VTCA-NH2; thioether N-14) | 0.0113 µM |
| CC[C@H](C)[C@@H]1NC(=O)[C@H](Cc2ccc(-c3ccccc3)cc2)NC(=O)[C@H](C2CCCCC2)NC(=O)[C@H](Cc2c[nH]c3ccccc23)NC(=O)[C@H](CC(=O)O)NC(=O)[C@H](Cc2ccc(OCC(=O)O)cc2)NC(=O)[C@H](CN)NC(=O)CSC[C@@H](C(=O)N[C@@H](C)C(N)=O)NC(=O)[C@H]([C@@H](C)O)NC(=O)[C@H](C(C)C)NC(=O)[C@H](CC2CCCCC2)NC(=O)[C@H](CCN)NC(=O)[C@@H](CC(C)C)NC(=O)[C@H](CCCN)NC1=O [Compound 1722] ({CH2CO}-[Dap]Y(Carboxymethyl)DW[Chg][Bip]I[Orn][dL][Dab][Cha]VTCA-NH2; thioether N-14) | 0.0275 µM |
| CC[C@H](C)[C@@H]1NC(=O)[C@H](Cc2ccc(-c3ccccc3)cc2)NC(=O)[C@H](CC2CCCC2)NC(=O)[C@H](Cc2c[nH]c3ccccc23)NC(=O)[C@H](CC(=O)O)NC(=O)[C@H](Cc2ccc(OCC(=O)O)cc2)NC(=O)[C@H](CN)NC(=O)CSC[C@@H](C(=O)N[C@@H](C)C(N)=O)NC(=O)[C@H]([C@@H](C)O)NC(=O)[C@H](C(C)C)NC(=O)[C@H](CC2CCCCC2)NC(=O)[C@H](CCN)NC(=O)[C@@H](CC(C)C)NC(=O)[C@H](CCCN)NC1=O [Compound 1723] ({CH2CO}-[Dap]Y(Carboxymethyl)DW[Ala(cPent)][Bip]I[Orn][dL][Dab][Cha]VTCA-NH2; thioether N-14) | 0.0208 µM |
| CC[C@H](C)[C@@H]1NC(=O)[C@H](Cc2ccc(-c3ccccc3)cc2)NC(=O)[C@H](C2CC2)NC(=O)[C@H](Cc2c[nH]c3ccccc23)NC(=O)[C@H](CC(=O)O)NC(=O)[C@H](Cc2ccc(OCC(=O)O)cc2)NC(=O)[C@H](CN)NC(=O)CSC[C@@H](C(=O)N[C@@H](C)C(N)=O)NC(=O)[C@H]([C@@H](C)O)NC(=O)[C@H](C(C)C)NC(=O)[C@H](CC2CCCCC2)NC(=O)[C@H](CCN)NC(=O)[C@@H](CC(C)C)NC(=O)[C@H](CCCN)NC1=O [Compound 1724] ({CH2CO}-[Dap]Y(Carboxymethyl)DW[Gly(cPr)][Bip]I[Orn][dL][Dab][Cha]VTCA-NH2; thioether N-14) | 0.0177 µM |
| CC[C@H](C)[C@@H]1NC(=O)[C@H](Cc2c[nH]c3ccccc23)NC(=O)[C@H](CC(=O)O)NC(=O)[C@H](Cc2ccc(OCC(=O)O)cc2)NC(=O)[C@H](CN)NC(=O)CSC[C@@H](C(=O)N[C@@H](C)C(N)=O)NC(=O)[C@H]([C@@H](C)O)NC(=O)[C@H](C(C)C)NC(=O)[C@H](CC2CCCCC2)NC(=O)[C@H](CCN)NC(=O)[C@@H](CC(C)C)NC(=O)[C@H](CCCN)NC(=O)[C@H]([C@@H](C)CC)NC(=O)[C@H](Cc2ccc(-c3ccccc3)cc2)NC1=O [Compound 1725] ({CH2CO}-[Dap]Y(Carboxymethyl)DWI[Bip]I[Orn][dL][Dab][Cha]VTCA-NH2; thioether N-14) | 0.0247 µM |
| CCCC[C@@H]1NC(=O)[C@H](Cc2c[nH]c3ccccc23)NC(=O)[C@H](CC(=O)O)NC(=O)[C@H](Cc2ccc(OCC(=O)O)cc2)NC(=O)[C@H](CN)NC(=O)CSC[C@@H](C(=O)N[C@@H](C)C(N)=O)NC(=O)[C@H]([C@@H](C)O)NC(=O)[C@H](C(C)C)NC(=O)[C@H](CC2CCCCC2)NC(=O)[C@H](CCN)NC(=O)[C@@H](CC(C)C)NC(=O)[C@H](CCCN)NC(=O)[C@H]([C@@H](C)CC)NC(=O)[C@H](Cc2ccc(-c3ccccc3)cc2)NC1=O [Compound 1726] ({CH2CO}-[Dap]Y(Carboxymethyl)DW[Nle][Bip]I[Orn][dL][Dab][Cha]VTCA-NH2; thioether N-14) | 0.0131 µM |
| CCC[C@@H]1NC(=O)[C@H](Cc2c[nH]c3ccccc23)NC(=O)[C@H](CC(=O)O)NC(=O)[C@H](Cc2ccc(OCC(=O)O)cc2)NC(=O)[C@H](CN)NC(=O)CSC[C@@H](C(=O)N[C@@H](C)C(N)=O)NC(=O)[C@H]([C@@H](C)O)NC(=O)[C@H](C(C)C)NC(=O)[C@H](CC2CCCCC2)NC(=O)[C@H](CCN)NC(=O)[C@@H](CC(C)C)NC(=O)[C@H](CCCN)NC(=O)[C@H]([C@@H](C)CC)NC(=O)[C@H](Cc2ccc(-c3ccccc3)cc2)NC1=O [Compound 1727] | 0.0091 µM |
| CC[C@H](C)[C@@H]1NC(=O)[C@H](Cc2ccc(-c3ccccc3)cc2)NC(=O)[C@H](c2ccccc2)NC(=O)[C@H](Cc2c[nH]c3ccccc23)NC(=O)[C@H](CC(=O)O)NC(=O)[C@H](Cc2ccc(OCC(=O)O)cc2)NC(=O)[C@H](CN)NC(=O)CSC[C@@H](C(=O)N[C@@H](C)C(N)=O)NC(=O)[C@H]([C@@H](C)O)NC(=O)[C@H](C(C)C)NC(=O)[C@H](CC2CCCCC2)NC(=O)[C@H](CCN)NC(=O)[C@@H](CC(C)C)NC(=O)[C@H](CCCN)NC1=O [Compound 1728] ({CH2CO}-[Dap]Y(Carboxymethyl)DW[Phg][Bip]I[Orn][dL][Dab][Cha]VTCA-NH2; thioether N-14) | 0.0292 µM |
